Key:
IL-1β = assay: Inhibition of IL-1β production by LPS-stimulated monocytes; type: cell-based; conditions: Homo sapiens, Monocyte, 18 h, read-out: % Inhibition of IL-1β produced by stimulated Monocytes with LPS @ 18 h
Experimental: (§1) Briefly, human peripheral blood monocytes (HMs) were isolated from a leukocyte concentrate by density gradient centrifugation (Lymphoprep) and the isolated HMs cultured (2 h, 37° C.) to remove non-adherent cells. The adherent HMs wore cultured for 18 h (1×10^6 cells/well, 24-well plates)±endotoxin (LPS)±different compounds dissolved in DMSO (the final concentration of DMSO in the RPMI serum-free culture media with Pen./Strep. antibiotics was no greater than 0.5%). After incubation, the proinflammatory cytokines, TNFα, […], MCP-1 and IL-6 were measured in the conditioned media by ELISA and cytotoxicity was assessed by measuring the absorbance (490 nm) of formazan produced by reduction of MTS. The HMs alone±0.1-0.5% DMSO produced minimal levels of these pro-inflammatory cytokines. However, addition of 100 ng/ml or 10 μg/ml of LPS both dramatically stimulated cytokine production.

NFκB activation = NFκB activation in human monocytes in cell culture; type: cell-based; conditions: Monocyte
collagenase-2 (MMP-8) = collagenase-2 (MMP-8) (Rattus norvegicus (Rat), UniProt O88766); assay: Diabetic rat, MMP-8 in skin extracts by Western blot; type: in vivo; conditions: diabetic rats, 100 mg/kg oral once/day, 7 days
Experimental: The latter assays were carried out using Western blot analysis with monoclonal antibodies to MMP-8.

MMP-13 (Collagenase-3) = MMP-13 (Collagenase-3) (Homo sapiens (Human), UniProt P45452); assay: MMP-13 inhibition in vitro, octapeptide substrate, HPLC; type: biochemical; conditions: read-out: MMP-13 Maximum Inhibition @100 μM
[1] = test system: p38 MAP kinase activation; assay: p38 MAP kinase activation, preliminary studies; type: cell-based
TNF-α = assay: Inhibition of TNF-α production by LPS-stimulated monocytes; type: cell-based, human
Experimental: as §1
The cytokine levels were measured by Luminex multiplex, a method that allows the simultaneous measurement of different biological markers.

caspase-3 activity = assay: Doxorubicin mediated caspase-3 activity; type: cell-based, rat; conditions: 10 μM, doxorubicin 500 nM, any time point
Experimental: Neonatal rat ventricular myocytes, serum starved for 24 h, were treated with the inhibitors 1 h prior to the addition of 500 nM of doxorubicin (Sigma). At the indicated time points cells were washed with ice-cold phosphate buffered saline and lysed using RIPA buffer (Pierce) containing protease and phosphatase inhibitors (Sigma). Caspase-3 activity in the cell lysates was measured by incubation with 7-amino-4-trifluoromethyl coumarin (Enzo).

MMP-2 = assay: Diabetic rat, gingiva gelatinase by gelatin zymography (MMP-2); type: in vivo; conditions: diabetic rats, oral daily, 3 weeks
Experimental: At the end of the treatment protocol, the rats were sacrificed, blood samples were collected, and whole skin (except over limbs) and qingiva were dissected (the skin, because of ample quantities of tissue were analyzed for each rat separately; the gingiva, because of the tiny amounts that could be harvested per rat, were pooled for each experimental group, as prescribed previously for tetracycline studies (30). In addition, the jaw bones were collected, defleshed, and bone loss around the teeth analyzed morphometrically as described previously (42, 43).
This appearance of MMP-9 only in the gingiva (FIG. 10), but not the skin (FIG. 12), of the diabetic rats is likely the result of the oral bacteria inducing inflammation in the gingiva of these immune-suppressed UD rats, whereas the skin is not exposed to this onslaught of bacteria particularly the anaerobic gram-negative bacteria in the mouth that cause periodontal and gingival inflammation.

In the case of COC(=O)C(C(=O)/C=C/c1ccc(O)c(OC)c1)C(=O)/C=C/c1ccc(O)c(OC)c1 [Compound 1, 1,7-Bis(4-hydroxy-3-methoxyphenyl)-4-methoxycarbonylhepta-1E,6E-dien-3,5-dione], the inhibition at 2 µM (IL-1β; 2 uM) is reported as 41%, the inhibition at 25 µM (IL-1β; 25 uM) is reported as 100% and the inhibition at 50 µM (IL-1β; 50 uM) is reported as 100%. It also gave an inhibition at 2 µM (NFκB activation; CRP/oxid-LDL Complex) of 91%, an inhibition at 10 µM (NFκB activation; CRP/oxid-LDL Complex) of 100% and an inhibition at 2 µM (NFκB activation; Endotoxin (LPS)) of 24%. For the same compound, the inhibition at 10 µM (NFκB activation; Endotoxin (LPS)) was 85%, the “MMP-8 level in skin extracts” value (collagenase-2 (MMP-8)) was “A similar pattern was observed” and the inhibition at 100 µM (MMP-13 (Collagenase-3)) was 69%. The “Effect on p38 MAP kinase activation” value [1] was “little/no effect”, the “TNFα level in LPS-challenged human monocytes, Luminex multiplex” value (TNF-α; 2 μM, FIG. 2) was “potent in reducing” and the inhibition at 2 µM (TNF-α; Homo sapiens, Monocyte, 18 h, 2 uM, read-out: % Inhibition of TNF-α produced by stimulated Monocytes with LPS @ 18 h) was 63%. The inhibition at 25 µM (TNF-α; Homo sapiens, Monocyte, 18 h, 25 uM, read-out: % Inhibition of TNF-α produced by stimulated Monocytes with LPS @ 18 h) was 100%, the inhibition at 50 µM (TNF-α; Homo sapiens, Monocyte, 18 h, 50 uM, read-out: % Inhibition of TNF-α produced by stimulated Monocytes with LPS @ 18 h) was 100% and the “Effect on doxorubicin mediated caspase-3 activity” value (caspase-3 activity) was “None of the MMP inhibitors, including compound 1, negatively modulate caspase-3 activity”. For the same compound, the “Pro- and activated-forms of MMP-2 in gingiva” value (MMP-2) was “neither diabetes nor compound 1 appeared to have a detectable effect”.
